The source of these data is patent US20210186947A1, “TOMM6-INTERACTING EXTRACTS AND COMPOUNDS FOR USE IN THE TREATMENT AND PROPHYLAXIS OF NERVOUS SYSTEM DISEASES, ATHEROSCLEROSIS, HEPATITIS B INFECTION AND HUMAN PAPILLOMA VIRUS (HPV) INFECTION” (ETH ZURICH, priority 2018, published 2021).

Data set [1] relates to hyperphosphorylated PHF-Tau. The data set can be described thus: Hippocampal hyperphosphorylated PHF-Tau in Tg2576 mice subjected to CUMS, binding assay with [125I]-labeled AT8 antibody. The class given is in vivo. The note with it: 15 months-old Tg2576 mice, 3 months of CUMS, treated during CUMS; compounds 10 mg/kg/d.
In data set [2] the test system is HPV-induced warts. The data set can be described thus: Phase-1 placebo-controlled study of topical Compound-1 on flat warts. The class given is in vivo, human. The note with it: once daily topical Compound-1-containing hydrogel (0.2%) for 3 weeks. Here is the method:
The study analyzed the treatment effect of topical administration of Compound-1 on warts. The study was performed according to the study protocol. Study design: The study was a phase-1, placebo-controlled study of Compound-1. The primary end-point was safety and tolerability. Secondary objectives were treatment effects on wart lesion size. The study included a cohort of 6 voluntary research participants (6 males; age 36-72 years; all Caucasians) with diagnosed flat warts. A total number of 94 lesions were treated with Compound-1. Vehicle-treated warts (n=88) of each participant served as placebo group. Study participants received once daily topical applications of a Compound-1-containing hydrogel (0.2%) or vehicle for 3 weeks. The study participants were under the medical supervision of Dr. Raafat Mahmood Fawzy (Clinical Director, Rabaa El Adaweya Medical Central Hospital, Cairo, Egypt). Clinical laboratory parameters of all research participants were within the normal range before, during the study and after completion of the study (observation period 4 weeks). […] The study protocol was conducted in accordance with the Declaration of Helsinki. All research participants provided written informed consent before participation. Research participants had the possibility to withdraw at any time from the study. But all participants wanted to complete the study.
A total number of 94 lesions were treated with Compound-1. Vehicle-treated warts (n=88) served as placebo. […] The treatment effect of Compound-1 against HPV infection is directly related to its activity as TOMM6 inducer/activator, which is a sufficient cause to inhibit (amyloidogenic) protein aggregation in cells and in vivo. In this context, HPV infection is another disease with causal involvement of an aggregation-prone amyloidogenic protein. Without wishing to be bound by theory, it is believed that Infections with human papillomaviruses (HPV) rely on the highly amyloidogenic protein E1AE4, also known as the HPV E4 protein (McIntosh et al., 82, 8196-8203 (2008)). The HPV E4 protein, which uses the amyloid-fold as does amyloid-beta, is the most abundantly expressed viral transcript/protein in HPV-infected epithelia, and mediates HPV-mediated disruption of cellular integrity, HPV release from infected epithelial cells and virus transmission (McIntosh et al., 82, 8196-8203 (2008); Doorbar, Virology 445, 80-98 (2013)). In HPV-induced warts, the aggregation-prone HPV E4 protein can constitute between 20% and 30% of the total wart protein (Doorbar et al., EMBO J. 5, 355-362 (1986)). The expression of E1AE4 relies on self-aggregation of the HPV E4 protein (Bryan et al., Virology 241, 49-60 (1998)).

The subject of data set [3] is synaptosomal nerve-associated protein 25 (Snap25). Put plainly: Whole genome microarray gene expression analysis of aortic genes: Snap25. The note with it: ApoE-/- mice, 10 mg/kg/day for 8 months. The class given is in vivo. The procedure:
Whole genome microarray gene expression profiling was performed with aortic specimens isolated from 9-month-old ApoE−/− mice without treatment and with oral treatment for 8 months with alizarin (10 mg/kg/day), and untreated age-matched B6 control mice. Total RNA was isolated by the RNeasy Mini kit according to the protocol of the manufacturer (Qiagen). RNA purity was between 1.8 and 2 as determined by the absorbance ratio of 260/280. RNA quality and absence of signs of degradation were also controlled by RNA electrophoresis on a denaturing agarose gel by the presence of bright bands of 28S and 18S ribosomal RNA. Total RNA was processed for whole genome microarray gene expression profiling with the GeneChip One-Cycle Target Labeling System (Affymetrix) according to the protocol of the manufacturer (Affymetrix GeneChip Expression Analysis Technical Manual Rev. 5). […]
Alzheimer's Disease (AD) is the most frequent form of dementia in the elderly. […] Atherosclerotic lesion area was assessed with oil red O-stained aortas isolated from 9-month-old ApoE−/− mice (FIG. 17A). […] The aortic expression levels of neuronal marker genes of alizarin-treated ApoE−/− mice were determined compared to untreated ApoE−/− mice and untreated B6 mice without atherosclerosis (FIG. 17D,E).

The subject of data set [4] is Salmonella strain TA1537. The note with it: cited from earlier work.

In the case of `O=C1c2ccccc2C(=O)c2c1ccc(O)c2O` [Compound-1, 1,2-dihydroxyanthraquinone], the “hippocampal content of hyperphosphorylated PHF-Tau” value in data set [1] is “significantly decreased hippocampal content of hyperphosphorylated PHF-Tau”. Moreover, the “response of treated warts” value in data set [2] was “showed a response”. In data set [2] (6 participants), the “adverse effects (safety and tolerability)” value is “no adverse effects”. Moreover, in data set [2] (94 lesions), the “lesions with complete response (100% decrease of the lesion area)” value is on record as “more than 86%” and the “lesions with partial response (>50%-<100% decrease of lesion area)” value is recorded as 13.8%. In addition, the “aortic expression level of Snap25” value in data set [3] is “not down-regulated and maintained at the levels of the non-transgenic B6 controls”. For the same compound, the “mutagenicity in the Ames test” value in data set [4] is reported as “could be mutagenic”.
